Laboratory results as given in patent US8518978B2, “Pharmaceutical composition for prevention and treatment of restenosis comprising isoxazole derivatives” (SK Biopharmaceuticals Co., Ltd., priority 2007, dated 2013).

Key:
[1] = test system: HUVEC (human umbrical vein endothelial cell); test: Test of endothelial cell proliferation (cell count); assay type: cell-based; details: for endothelial cell proliferation: drug alone, increasing concentration, two days, cell count (FIGS. 5, 8 to 10)
Procedure: An HUVEC (human umbrical vein endothelial cell, Cambrex, US) cell line at 3-10 passages was incubated in an EGM2 (endothelial growth medium, Cambrex, US) culture medium under a standard culture condition (O2 95%, 5% CO2, 37° C., 100% RH). 1×10^4 Cells was divided into a 24-well plate, and cultured for a day so that the cells can be fixed into the 24-well plate. In order to allow the cells to enter interphase, the cells were washed three times with PBS, and the EGM2 culture medium was replaced by EBM2 (endothelial basal medium, Cambrex) including 1% fetal bovine serum and 1% antibiotic-antimycotic (Gibco, US), and the cells were incubated for a day. After the used medium was removed, an EBM2 including 1% fetal bovine serum and 1% antibiotic-antimycotic (Gibco) solution supplemented with a drug was added to the cells, and the cell solution was then cultured for two days. After the cell culture, morphology of the cells was observed under a microscope. Then, the cells were detached from the plate using trypsin, and counted using a hemacytometer. 0.1% DMSO dissolved in saline was used as the vehicle control.

pig coronary stent model [2] = test: Restenosis inhibition in pig coronary stent model; assay type: in vivo
Procedure: (§1) All pigs receiving a surgical operation were treated with an antithrombotic agent ‘clopidogrel’ (35 mg/day) and aspirin (100 mg/day) before one week of the surgical operation. Pigs weighed 30 to 40 kg were anesthetized with ketamine (20 mg/kg IM) and xylazine (2 mg/kg IM), and their aesthesia was maintained by connecting an infusion set to their ear veins and allowing a ketamine/xylazine solution (ketamin 50 g+xylazine 10 g/500 ml saline) to flow in the ear veins according to the aesthesia state. Pig surgery regions were shaved, sterilized with betadine. Skin on the neck was cut by approximately 5 cm, and a pig carotid artery was found using a mosquito, and 1 ml of heparin (5,000 IU) was administered to pigs. Angiocardiography was performed using a SIREMOBIL 245B angiocardiographer (commercially available from Siemens). A stent (diameter: 3.0 mm; length: 15 mm) was used for surgical operation on LAD, RAD and RCX by expanding the stent at a ratio 1.3:1 of stent:vein diameter, and a position of stent transplantation was previously determined using the imaging system.
After 28 days, pigs were intravenously injected with KCl (40 meq/l) under a conventional aesthesia condition to induce pig cardioplegia, and hearts were extracted pigs. […]

pig coronary stent model [3] = test: Re-endothelization in pig coronary stent model (vWF staining); assay type: in vivo
Procedure: as §1, with “system. […]” for “system.”
In order to observe a re-endothelization level by a drug, a tissue section slide of pig blood vessel was reacted at 4° C. with vWF (von willebrand factor, DakoCytomation, US) Ab that stains endothelial cells of mice. […] The tissue section slide was observed and photographed under a fluorescence microscope.

[4] = test system: SMC (rat aortic smooth muscle cell); test: Test of vascular smooth muscle cell proliferation (cell count); assay type: cell-based
Procedure: An SMC (rat aortic smooth muscle cell) cell line at 3-10 passages was incubated in a culture medium of SmGM (Smooth muscle cell growth medium, Cambrex) including 5% fetal bovine serum and 1% antibiotic antimycotic reagent (Gibco, US) under a standard culture condition ([…], 5% CO2, 37° C., 100% RH). 2×10^4 Cells were divided into a 24-well plate, and cultured for a day so that the cells can be fixed into the 24-well plate. The cells were washed three times with PBS, put into a solution of SmGM including 5% fetal bovine serum and 1% antibiotic-antimycotic (Gibco), and then incubated for a day. After the used medium was removed, an SmGM including 5% fetal bovine serum solution supplemented with a corresponding drug was added to the cells, and the cell solution was then cultured for two days. After the cell culture, morphology of the cells was observed under a microscope. Then, the cells were detached from the plate using trypsin, and counted using a hemacytometer. 0.1% DMSO dissolved in saline was used as the vehicle control.

[5] = test system: rat carotid artery injury model; test: Re-endothelization in rat carotid artery injury model (vWF staining); assay type: in vivo
Description: (§2) White rats weighed 350 to 400 g were anesthetized with ketamine and xylene, and their surgery regions were shaved and sterilized with betadine. Skin on the neck region was cut by about 2 cm, and a rat carotid artery was found using a mosquito. A blood flow was prevented by hanging a thread on the carotid artery and an internal carotid artery, followed by tying an external carotid artery with a thread. A 2F forgarty catheter (Baxter, US) was inserted into a blood vessel between the external carotid artery and the carotid artery to wound a carotid artery region three times. Then, the wounded carotid artery region was tied with a thread to allow a blood flow through the carotid artery and the internal carotid artery and prevent hemorrhage between the carotid artery and the external carotid artery, and the surgery region was closed with stitches. Each of rear neck skins were cut by approximately 1 cm, and an osmotic pump containing a drug is inserted into the blood vessel and closed with stitches. After 1 week to observe the endothelial cells and 2 weeks to observe the restenosis, all blood was extracted from each subject rat using a perfusion, carotid arteries were taken from the rats and their tissue slides were made to observe their section of blood vessel. […]

[6] = test system: rat carotid artery injury model; test: Restenosis inhibition in rat carotid artery injury model; assay type: in vivo
Description: as §2

[7] = isoxazole derivative together with rapamycin, versus rapamycin alone (FIG. 6)

O=C(NCCCn1cncn1)c1cc(-c2ccsc2)on1 [Derivative 62, 5-thiophen-3-yl-isoxazole-3-carboxylic acid (3-[1,2,4]-triazol-1-yl-propyl)-amide]
endothelial cell proliferation [1]: inhibit or maintain the proliferation of the endothelial cells

Cn1nnnc1SCCNC(=O)c1cc(-c2cccs2)on1 [Derivative 68, 5-thiophen-2-yl-isoxazole-3-carboxylic acid [2-(1-methyl-1H-tetrazol-5-yl-sulfanyl)-ethyl]-amide]
endothelial cell proliferation [1]: inhibit or maintain the proliferation of the endothelial cells

O=C(NCCn1cncn1)c1cc(-c2ccc(F)cc2)on1 [Derivative 35, 5-(4-fluoro-phenyl)-isoxazole-3-carboxylic acid (2-[1,2,4]triazol-1-yl-ethyl)-amide]
endothelial cell proliferation [1]: inhibit or maintain the proliferation of the endothelial cells

O=C(NCCCn1cncn1)c1cc(-c2ccc(F)cc2)on1 [Derivative 31, 5-(4-fluoro-phenyl)-isoxazole-3-carboxylic acid (3-[1,2,4]triazol-1-yl-propyl)-amide]
endothelial cell proliferation [1]: inhibit or maintain the proliferation of the endothelial cells

CO[C@H]1C[C@@H]2CC[C@@H](C)[C@@](O)(O2)C(=O)C(=O)N2CCCC[C@H]2C(=O)O[C@H]([C@H](C)C[C@@H]2CC[C@@H](O)[C@H](OC)C2)CC(=O)[C@H](C)/C=C(\C)[C@@H](O)[C@@H](OC)C(=O)[C@H](C)C[C@H](C)/C=C/C=C/C=C/1C [rapamycin, reference compound]
restenotic areas of blood vessels (pig coronary stent model [2]; stent with PLGA polymer and drug, after 28 days, negative control 2.74 mm^2 (FIG. 14)): 1.80 mm^2 | re-endothelization rate (healing %) (pig coronary stent model [3]; drug-containing PLGA stent, polymer-coated stent 80.2% (FIG. 15)): 67.9%

Cn1cnnc1S(=O)(=O)CCNC(=O)c1cc(-c2ccco2)on1 [Derivative 70, 5-furan-2-yl-isoxazole-3-carboxylic acid [2-(4-methyl-4H-[1,2,4]triazol-3-yl-sulfonyl)-ethyl]-amide]
endothelial cell proliferation [1]: inhibit or maintain the proliferation of the endothelial cells

O=C(NCCc1ccncc1)c1cc(-c2ccco2)on1 [Derivative 5, 5-furan-2-yl-isoxazole-3-carboxylic acid (2-pyridin-4-yl-ethyl)-amide]
endothelial cell proliferation [1]: increases or maintains the proliferation of HUVEC | endothelial cell proliferation, used together with paclitaxel ([1]; isoxazole derivative together with paclitaxel, versus paclitaxel alone (FIG. 7)): recovered | endothelial cell proliferation, used together with rapamycin [1, 7]: recovered | lumen losses of blood vessel (pig coronary stent model [2]; stent with 180 μg rapamycin plus 45, 90 or 180 μg derivative 5, 28 days, versus rapamycin-treated group (FIG. 14)): further reduced | re-endothelization on the damaged artery surface (pig coronary stent model [3]; 4 weeks, stent with rapamycin plus derivative 5 (FIG. 15)): significantly recovered | cell number of vascular smooth muscle cells (VSMC) ([4]; drug alone, increasing concentration, two days (FIG. 5)): reduced | vascular smooth muscle cell proliferation, used together with rapamycin [4, 7]: inhibited more significantly | re-endothelization on damaged carotid artery surface ([5]; 200 μg/kg/day for two weeks, versus not administered (FIG. 12)): occurs more significantly | re-endothelization, together with rapamycin ([5]; compound together with rapamycin versus compound only (FIG. 13)): more significantly increased | restenotic area of the blood vessel ([6]; 200 μg/kg/day for two weeks by osmotic pump, versus not administered (FIG. 11)): more significantly reduced in size | restenosis inhibition effect, together with rapamycin ([6]; compound together with rapamycin versus compound only (FIG. 11, FIG. 13)): more significant restenosis inhibition effect

O=C(NCCCSc1nnc[nH]1)c1cc(-c2cccs2)on1 [Derivative 69, 5-thiophen-2-yl-isoxazole-3-carboxylic acid [3-(4H-[1,2,4]triazol-3-yl-sulfanyl)-propyl]-amide]
endothelial cell proliferation [1]: inhibit or maintain the proliferation of the endothelial cells

CC(=O)O[C@H]1C(=O)[C@@]2(C)[C@H]([C@H](OC(=O)c3ccccc3)[C@]3(O)C[C@H](OC(=O)[C@H](O)[C@@H](NC(=O)c4ccccc4)c4ccccc4)C(C)=C1C3(C)C)[C@]1(OC(C)=O)CO[C@@H]1C[C@@H]2O [paclitaxel, reference compound]
endothelial cell proliferation [1]: inhibit the proliferation of HUVEC

O=C(NCCCn1ccnc1)c1cc(-c2ccccc2)on1 [Derivative 23, 5-phenyl-isoxazole-3-carboxylic acid (3-imidazol-1-yl-propyl)-amide]
endothelial cell proliferation [1]: inhibit or maintain the proliferation of the endothelial cells

O=C(NCCn1ccnc1)c1cc(-c2ccco2)on1 [Derivative 4, 5-furan-2-yl-isoxazole-3-carboxylic acid (2-imidazol-1-yl-ethyl)-amide]
endothelial cell proliferation [1]: inhibit or maintain the proliferation of the endothelial cells

O=C(NCCCn1cncn1)c1cc(-c2ccco2)on1 [Derivative 19, 5-furan-2-yl-isoxazole-3-carboxylic acid (3-[1,2,4]triazol-1-yl-propyl)-amide]
endothelial cell proliferation [1]: inhibit or maintain the proliferation of the endothelial cells

O=C(NCCCn1ccnc1)c1cc(-c2ccsc2)on1 [Derivative 63, 5-thiophen-3-yl-isoxazole-3-carboxylic acid (3-imidazol-1-yl-propyl)-amide]
endothelial cell proliferation [1]: inhibit or maintain the proliferation of the endothelial cells

O=C(NCCCn1cncn1)c1cc(-c2cccs2)on1 [Derivative 50, 5-thiophen-2-yl-isoxazole-3-carboxylic acid (3-[1,2,4]-triazol-1-yl-propyl)-amide]
endothelial cell proliferation [1]: inhibit or maintain the proliferation of the endothelial cells
